Laboratory results: US9296728B2, “Therapeutic compounds” (Regents of the University of Minnesota, priority 2012, dated 2016)

Assays:
[1] = molecular target: MCT1 (Rattus norvegicus (Rat), UniProt P53987); experiment: Test A. MCT1 inhibition via lactate uptake in rat brain endothelial (RBE4) cells; type: cell-based; conditions: 14C-lactate uptake
Experimental: Test A. MCT1 Inhibition Via Lactate Uptake Rat Brain Endothelial Cells
The entire lactate uptake studies for the inhibition of MCT1 were carried out on RBE4 (Rat Brain Endothelial 4) cells. The expression of MCT1 on these cells was confirmed by Western Blotting. The cells were plated approximately 20-24 hours before the experiment, the number of cells being approximately 10^5 cells per well. The test compounds were dissolved in DMSO and diluted 1000 times using a solution of HEPES buffer (pH 7.43) which consists of 3 μM ^14C-Lactate and 2 μM L-Lactate. The cells were washed twice with 500 μL of HEPES buffer and the cells were allowed to equilibrate for 15 minutes at 37° C. The HEPES buffer was removed and 250 μL of the test sample was added in triplicates. This was repeated for all the compounds, including the controls (CHC and DMSO). After 15 minutes, the compounds were removed from the well and 500 μL of ice-cold stop buffer (0.1 mM CHC solution in HEPES buffer) was added. The plate was kept on ice. Now, the HEPES buffer in one triplicate was removed and DMSO solution was added and immediately removed and ice-cold stop buffer was added. This was considered as “Zero”. One triplicate was left blank, which was used for protein assay after lysing the cells. The cells were washed twice with ice-cold HEPES buffer and then 250 μL of 0.1M NaOH in 5% Triton-X solution was added and the plate is kept on a shaker for 40 minutes to lyse the cells. 150 μL of the lysed cells was added into 4 mL of the scintillation fluid in a scintillation vial and scintillation count was obtained in disintegrations per minute (dpm). The percent inhibition values were calculated by taking DMSO as minimum. Concentration study (usually 9-12 dilutions) was done to determine the IC50 of each compound.

[2] = Toxicity study in healthy ICR mice (body weight, WBC, RBC); type: in vivo; conditions: for RBC ± SEM / WBC ± SEM: end of day 22
Experimental: 60 ICR mice weighing ˜27 grams were randomly assigned into 5 groups (12 animals, 6 male and 6 female per group), one group being the control group without any drug administration (food only). The drugs were administered twice daily by P.O. or I.P. Group 1 and 3 were administered orally with 50 mg/Kg of Compound 20 and 18 mg/Kg of Compound 14 respectively. Group 2 and 4 mice were injected intraperitoneally with 6.67 mg/Kg of Compound 20 and 5.3 mg/Kg of Compound 14 (dissolved in water) respectively. The body weights of mice were recorded daily for 22 days. At the end of the 22nd day, 3 mice were randomly selected from each group and their blood samples were collected for detailed analysis of white blood cell (WBC) and red blood cell (RBC) counts. The mice were then euthanized with CO2.

[3] = Toxicity study in BALB/c nude mice containing WiDr colorectal adenocarcinoma xenograft (body weight); type: in vivo; conditions: BALB/c nude mice with WiDr xenograft, 8 mg/kg i.p. twice daily
Experimental: Female BALB/c nude mice weighing ˜20 g were taken and 5.0 10^6 WiDr cancer cells were implanted into their right flanks with a 1:1 mixture of 0.1 mL PBS and matrigel. The tumor was allowed to grow to a size of ˜150 cubic millimeters (14 days). The mice were randomly chosen by chance and assigned into 5 groups (6 mice per group), one group being the control group to which tumor was allowed to grow without any drug administration (food only). The drugs were administered twice daily by P.O. or I.P. Group 1 mice were administered orally with 50 mg/kg of Compound 20. Groups 2, 3 and 4 mice were treated via IP with 10 mg/kg Compound 20, 8 mg/kg of Compound 14 and 238 mg/kg CHC respectively. Body weight changes were recorded every two days for 3 weeks.

Chain of MCT1 (P53987 whole entry): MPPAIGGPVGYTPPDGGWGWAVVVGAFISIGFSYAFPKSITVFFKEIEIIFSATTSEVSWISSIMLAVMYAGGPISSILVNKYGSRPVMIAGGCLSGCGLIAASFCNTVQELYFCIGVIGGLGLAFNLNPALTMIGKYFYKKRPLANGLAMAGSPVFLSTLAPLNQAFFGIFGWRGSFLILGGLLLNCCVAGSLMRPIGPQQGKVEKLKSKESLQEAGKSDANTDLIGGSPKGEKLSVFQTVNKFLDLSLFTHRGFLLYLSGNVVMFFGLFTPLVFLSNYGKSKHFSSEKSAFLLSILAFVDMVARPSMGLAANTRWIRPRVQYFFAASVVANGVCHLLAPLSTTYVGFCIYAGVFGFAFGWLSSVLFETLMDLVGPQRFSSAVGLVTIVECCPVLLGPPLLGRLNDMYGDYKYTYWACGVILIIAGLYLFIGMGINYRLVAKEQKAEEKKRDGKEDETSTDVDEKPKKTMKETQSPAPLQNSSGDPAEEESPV
Chain of MCT1 (P26453 141-388 partner): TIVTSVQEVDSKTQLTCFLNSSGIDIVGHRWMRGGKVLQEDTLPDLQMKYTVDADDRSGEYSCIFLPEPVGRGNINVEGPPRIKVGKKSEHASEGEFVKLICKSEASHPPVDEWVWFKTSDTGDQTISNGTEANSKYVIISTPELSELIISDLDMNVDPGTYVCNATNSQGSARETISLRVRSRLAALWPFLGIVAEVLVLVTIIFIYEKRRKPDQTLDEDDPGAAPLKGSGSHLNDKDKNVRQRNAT

Row | SMILES | IC50 [1] | other results
1 | C#CCN(CC#C)c1ccc(/C=C(\C#N)C(=O)O)c(OC)c1 [Compound 17] | 0.091 µM | 
2 | COc1cc(N(CC(C)C)CC(C)C)ccc1/C=C(\C#N)C(=O)O [Compound 18] | 0.015 µM | 
3 | CCCN(CCC)c1ccc2cc(C(=O)O)c(=O)oc2c1 [Compound 22] | 0.299 µM | 
4 | O=C(O)c1cc2ccc(N(Cc3ccc(F)cc3)Cc3ccc(F)cc3)cc2oc1=O [Compound 27] | 0.2 µM | 
5 | CCCN(CCC)c1ccc(/C=C(\C#N)C(=O)O)c(OC)c1 [Compound 13] | 0.0095 µM | 
6 | CCCCCN(CCCCC)c1ccc(/C=C(\C#N)C(=O)O)c(OC)c1 [Compound 15] | 0.023 µM | 
7 | O=C(O)c1cc2ccc(N(Cc3ccccc3)Cc3ccccc3)cc2oc1=O [Compound 25] | 0.048 µM | 
8 | O=C(O)c1cc2ccc(N(Cc3ccc4c(c3)OCO4)Cc3ccc4c(c3)OCO4)cc2oc1=O [Compound 29] | 0.11 µM | 
9 | CCCCN(CCCC)c1ccc(/C=C(\C#N)C(=O)O)cc1 [Compound 4] | 0.026 µM | 
10 | CCCCN(CCCC)c1ccc(/C=C(\C#N)C(=O)O)c(OC)c1 [Compound 14] | 0.0076 µM | Weight in grams (Day 0) ([2]; 5.3 mg/kg i.p. twice daily): 27.05 grams; Weight in grams (Day 22) ([2]; 5.3 mg/kg i.p. twice daily): 32.53 grams; RBC ± SEM ([2]; 5.3 mg/kg i.p. twice daily): 1.58 ± 0.05 10^13/L; WBC ± SEM ([2]; 5.3 mg/kg i.p. twice daily): 5.80 ± 0.72 10^10/L; Weight in grams (Day 0) ([2]; 18 mg/kg p.o. twice daily): 27.04 grams; Weight in grams (Day 22) ([2]; 18 mg/kg p.o. twice daily): 32.60 grams; RBC ± SEM ([2]; 18 mg/kg p.o. twice daily): 1.58 ± 0.02 10^13/L; WBC ± SEM ([2]; 18 mg/kg p.o. twice daily): 4.57 ± 0.49 10^10/L; Weight in grams (Day 0) ([3]; Day 0): 22.08 grams; Weight in grams (Day 22) ([3]; Day 22): 23.50 grams
11 | O=C(O)c1cc2ccc(N(Cc3ccc(Cl)cc3)Cc3ccc(Cl)cc3)cc2oc1=O [Compound 28] | 0.92 µM | 
12 | C=CCN(CC=C)c1ccc2cc(C(=O)O)c(=O)oc2c1 [Compound 23] | 0.25 µM | 
13 | C#CCN(CC#C)c1ccc(/C=C(\C#N)C(=O)O)cc1 [Compound 8] | 0.34 µM | 
14 | N#C/C(=C\c1ccc(N(Cc2ccccc2)Cc2ccccc2)cc1)C(=O)O [Compound 10] | 0.043 µM | 
15 | CCCCCN(CCCCC)c1ccc(/C=C(\C#N)C(=O)O)cc1 [Compound 5] | 0.12 µM | 
16 | CCCCCCN(CCCCCC)c1ccc(/C=C(\C#N)C(=O)O)cc1 [Compound 6] | 0.95 µM | 
17 | CC(C)CN(CC(C)C)c1ccc(/C=C(\C#N)C(=O)O)cc1 [Compound 9] | 0.066 µM | 
18 | COc1cc(N2CCCC2)ccc1/C=C(\C#N)C(=O)O [Compound 21] | 0.059 µM | 
19 | C=CCN(CC=C)c1ccc(/C=C(\C#N)C(=O)O)cc1 [Compound 7] | 0.088 µM | 
20 | C#CCN(CC#C)c1ccc2cc(C(=O)O)c(=O)oc2c1 [Compound 24] | 0.15 µM | 
21 | N#C/C(=C\c1ccc(N2CCCC2)cc1)C(=O)O [Compound 11] | 0.064 µM | 
22 | C=CCN(CC=C)c1ccc(/C=C(\C#N)C(=O)O)c(OC)c1 [Compound 16] | 0.025 µM | 
23 | O=C(O)c1cc2ccc(N3CCCC3)cc2oc1=O [Compound 26] | 0.22 µM | 
24 | N#C/C(=C\c1ccc(N2CCCCC2)cc1)C(=O)O [Compound 12] | 0.11 µM | 
25 | COc1cc(N(Cc2ccccc2)Cc2ccccc2)ccc1/C=C(\C#N)C(=O)O [Compound 19] | 0.019 µM | 
